{"source": "ChEMBL document CHEMBL6074671", "about": "“Discovery of Pyridine-2-Carboxamides Derivatives as Potent and Selective HPK1 Inhibitors for the Treatment of Cancer” (J Med Chem, 2024)", "key": {"[1]": {"molecular_target": "T1, Mitogen-activated protein kinase kinase kinase kinase 1 (Homo sapiens, UniProt Q92918)", "T1 sequence (Q92918 whole entry, the tested form may be a part)": "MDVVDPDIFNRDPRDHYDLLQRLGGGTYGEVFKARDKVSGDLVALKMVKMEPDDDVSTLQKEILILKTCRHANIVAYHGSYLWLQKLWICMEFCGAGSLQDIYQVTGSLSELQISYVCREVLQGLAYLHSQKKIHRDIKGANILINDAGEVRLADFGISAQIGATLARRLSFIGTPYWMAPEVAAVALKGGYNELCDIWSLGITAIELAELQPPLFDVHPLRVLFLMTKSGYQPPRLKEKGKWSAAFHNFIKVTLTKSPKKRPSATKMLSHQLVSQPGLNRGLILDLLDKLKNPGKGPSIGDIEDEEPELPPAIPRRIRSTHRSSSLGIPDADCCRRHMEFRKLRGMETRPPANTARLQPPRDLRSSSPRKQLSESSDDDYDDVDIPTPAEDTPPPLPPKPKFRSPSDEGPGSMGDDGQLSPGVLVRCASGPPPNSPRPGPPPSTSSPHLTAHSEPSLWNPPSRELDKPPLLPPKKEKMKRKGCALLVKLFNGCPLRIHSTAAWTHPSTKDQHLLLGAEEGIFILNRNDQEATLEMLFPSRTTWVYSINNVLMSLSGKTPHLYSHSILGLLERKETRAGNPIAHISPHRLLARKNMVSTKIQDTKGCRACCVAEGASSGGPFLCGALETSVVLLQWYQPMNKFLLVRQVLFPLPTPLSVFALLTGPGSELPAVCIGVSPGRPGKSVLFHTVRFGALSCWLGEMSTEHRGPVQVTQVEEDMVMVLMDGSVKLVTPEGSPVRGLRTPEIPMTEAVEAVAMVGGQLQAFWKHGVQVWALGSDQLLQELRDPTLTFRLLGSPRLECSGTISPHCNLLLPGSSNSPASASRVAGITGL", "assay": "Inhibition of human recombinant wild type N-terminal HPK1 (1 to 346 residues) infected in insect Sf21 cells using fluorescein-PKC as substrate preincubated for 10 mins followed by substrate addition and measured after 90 mins by microplate reader based analysis", "type": "single protein"}, "[2]": {"molecular_target": "T2, Mitogen-activated protein kinase kinase kinase kinase 3 (Homo sapiens, UniProt Q8IVH8)", "T2 sequence (Q8IVH8 whole entry)": "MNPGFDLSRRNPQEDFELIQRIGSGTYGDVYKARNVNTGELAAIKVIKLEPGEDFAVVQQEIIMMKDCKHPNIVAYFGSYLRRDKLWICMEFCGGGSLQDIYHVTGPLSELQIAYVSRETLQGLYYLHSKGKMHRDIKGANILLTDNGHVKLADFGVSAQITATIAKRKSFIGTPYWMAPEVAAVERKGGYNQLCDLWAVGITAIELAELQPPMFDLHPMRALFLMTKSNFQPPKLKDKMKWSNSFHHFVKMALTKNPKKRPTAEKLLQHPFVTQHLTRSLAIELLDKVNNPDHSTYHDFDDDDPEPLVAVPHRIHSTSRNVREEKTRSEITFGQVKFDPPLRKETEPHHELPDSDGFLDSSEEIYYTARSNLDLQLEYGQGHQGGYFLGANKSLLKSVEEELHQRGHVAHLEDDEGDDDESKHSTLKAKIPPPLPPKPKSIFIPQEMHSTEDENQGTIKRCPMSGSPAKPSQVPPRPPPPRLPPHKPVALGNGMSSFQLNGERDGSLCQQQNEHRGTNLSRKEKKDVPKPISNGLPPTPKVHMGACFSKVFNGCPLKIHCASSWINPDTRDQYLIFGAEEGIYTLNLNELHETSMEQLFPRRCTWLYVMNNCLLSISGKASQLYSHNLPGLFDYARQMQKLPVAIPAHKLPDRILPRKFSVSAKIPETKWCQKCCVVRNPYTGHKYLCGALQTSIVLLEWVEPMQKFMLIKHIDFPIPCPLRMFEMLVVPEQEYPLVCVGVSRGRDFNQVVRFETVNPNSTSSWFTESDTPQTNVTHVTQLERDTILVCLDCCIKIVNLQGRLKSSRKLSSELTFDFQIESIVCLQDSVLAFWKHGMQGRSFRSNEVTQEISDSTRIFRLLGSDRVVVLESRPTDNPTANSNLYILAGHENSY", "assay": "Inhibition of GLK (unknown origin)"}, "[3]": {"molecular_target": "T1, Mitogen-activated protein kinase kinase kinase kinase 1", "assay": "Inhibition of HPK1 in human PBMC cells assessed as IL-2 level pretreated for 4 hrs followed by anti-CD3/CD28 stimulation for 20 mins by HTRF method", "type": "cell-based"}, "[4]": {"assay": "Dose normalized AUC (0 to 24 hrs) in Sprague-Dawley rat at 10 mg/kg, po", "type": "ADME, organism-based", "details": "in vivo"}, "[5]": {"assay": "Oral bioavailability n Sprague-Dawley rat at 10 mg/kg", "type": "ADME, organism-based", "details": "in vivo"}, "[6]": {"assay": "Dose normalized AUC (0 to 24 hrs) in Balb/c mouse at 10 mg/kg, po", "type": "ADME, organism-based", "details": "in vivo"}, "[7]": {"assay": "Oral bioavailability in Balb/c mouse at 10 mg/kg", "type": "ADME, organism-based", "details": "in vivo"}, "[8]": {"molecular_target": "T2, Mitogen-activated protein kinase kinase kinase kinase 3", "assay": "Inhibition of human recombinant GST-tagged MAP4K3 ([…]) extracted from Baculovirus expression system"}, "[9]": {"molecular_target": "Mitogen-activated protein kinase kinase kinase kinase 5 (Homo sapiens, UniProt Q9Y4K4)", "sequence (Q9Y4K4 whole entry)": "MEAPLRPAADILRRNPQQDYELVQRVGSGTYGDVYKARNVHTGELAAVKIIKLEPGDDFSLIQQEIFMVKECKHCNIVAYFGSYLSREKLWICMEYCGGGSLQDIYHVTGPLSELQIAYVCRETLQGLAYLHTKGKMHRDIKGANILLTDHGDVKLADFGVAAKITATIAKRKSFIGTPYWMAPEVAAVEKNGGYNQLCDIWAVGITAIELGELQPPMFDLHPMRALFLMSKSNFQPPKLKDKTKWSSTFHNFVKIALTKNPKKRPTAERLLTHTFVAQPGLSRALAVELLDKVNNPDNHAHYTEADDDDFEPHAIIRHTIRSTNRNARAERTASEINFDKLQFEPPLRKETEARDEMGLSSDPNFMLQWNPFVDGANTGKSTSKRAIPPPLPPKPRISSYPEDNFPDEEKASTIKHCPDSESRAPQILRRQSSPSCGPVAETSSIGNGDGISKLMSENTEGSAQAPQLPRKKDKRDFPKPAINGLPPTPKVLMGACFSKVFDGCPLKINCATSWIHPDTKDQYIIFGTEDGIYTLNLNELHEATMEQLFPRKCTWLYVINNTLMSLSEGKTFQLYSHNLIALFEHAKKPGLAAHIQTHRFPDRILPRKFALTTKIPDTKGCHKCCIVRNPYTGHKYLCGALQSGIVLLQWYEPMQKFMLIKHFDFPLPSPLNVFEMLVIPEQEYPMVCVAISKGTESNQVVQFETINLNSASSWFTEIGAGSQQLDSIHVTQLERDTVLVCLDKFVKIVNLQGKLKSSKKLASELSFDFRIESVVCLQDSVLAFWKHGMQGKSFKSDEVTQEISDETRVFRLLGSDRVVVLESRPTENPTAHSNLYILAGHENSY", "assay": "Inhibition of human GST-tagged full length recombinant MAP4K5 expressed in insect cells", "design": "species or system Insect cell"}, "[10]": {"molecular_target": "Serine/threonine-protein kinase 4 (Homo sapiens, UniProt Q13043)", "sequence (Q13043 whole entry)": "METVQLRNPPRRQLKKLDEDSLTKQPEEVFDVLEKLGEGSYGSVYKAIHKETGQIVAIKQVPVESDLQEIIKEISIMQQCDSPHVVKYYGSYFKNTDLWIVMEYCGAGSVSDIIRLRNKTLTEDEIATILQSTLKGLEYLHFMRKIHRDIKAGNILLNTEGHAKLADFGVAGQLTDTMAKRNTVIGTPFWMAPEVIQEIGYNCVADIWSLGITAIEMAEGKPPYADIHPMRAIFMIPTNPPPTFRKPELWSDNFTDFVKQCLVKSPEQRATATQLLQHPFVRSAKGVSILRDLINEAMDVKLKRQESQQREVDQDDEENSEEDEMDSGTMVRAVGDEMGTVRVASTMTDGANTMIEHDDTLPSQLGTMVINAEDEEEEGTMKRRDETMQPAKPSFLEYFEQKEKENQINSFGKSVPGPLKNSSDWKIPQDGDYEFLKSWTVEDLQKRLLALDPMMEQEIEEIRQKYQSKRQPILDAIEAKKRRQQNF", "assay": "Inhibition of MST1 (unknown origin)"}, "[11]": {"molecular_target": "Cyclin-dependent kinase 2 (Homo sapiens, UniProt P24941)", "assay": "Inhibition of CDK2 (unknown origin)"}, "[12]": {"molecular_target": "Receptor-type tyrosine-protein kinase FLT3 (Homo sapiens, UniProt P36888)", "sequence (P36888 whole entry)": "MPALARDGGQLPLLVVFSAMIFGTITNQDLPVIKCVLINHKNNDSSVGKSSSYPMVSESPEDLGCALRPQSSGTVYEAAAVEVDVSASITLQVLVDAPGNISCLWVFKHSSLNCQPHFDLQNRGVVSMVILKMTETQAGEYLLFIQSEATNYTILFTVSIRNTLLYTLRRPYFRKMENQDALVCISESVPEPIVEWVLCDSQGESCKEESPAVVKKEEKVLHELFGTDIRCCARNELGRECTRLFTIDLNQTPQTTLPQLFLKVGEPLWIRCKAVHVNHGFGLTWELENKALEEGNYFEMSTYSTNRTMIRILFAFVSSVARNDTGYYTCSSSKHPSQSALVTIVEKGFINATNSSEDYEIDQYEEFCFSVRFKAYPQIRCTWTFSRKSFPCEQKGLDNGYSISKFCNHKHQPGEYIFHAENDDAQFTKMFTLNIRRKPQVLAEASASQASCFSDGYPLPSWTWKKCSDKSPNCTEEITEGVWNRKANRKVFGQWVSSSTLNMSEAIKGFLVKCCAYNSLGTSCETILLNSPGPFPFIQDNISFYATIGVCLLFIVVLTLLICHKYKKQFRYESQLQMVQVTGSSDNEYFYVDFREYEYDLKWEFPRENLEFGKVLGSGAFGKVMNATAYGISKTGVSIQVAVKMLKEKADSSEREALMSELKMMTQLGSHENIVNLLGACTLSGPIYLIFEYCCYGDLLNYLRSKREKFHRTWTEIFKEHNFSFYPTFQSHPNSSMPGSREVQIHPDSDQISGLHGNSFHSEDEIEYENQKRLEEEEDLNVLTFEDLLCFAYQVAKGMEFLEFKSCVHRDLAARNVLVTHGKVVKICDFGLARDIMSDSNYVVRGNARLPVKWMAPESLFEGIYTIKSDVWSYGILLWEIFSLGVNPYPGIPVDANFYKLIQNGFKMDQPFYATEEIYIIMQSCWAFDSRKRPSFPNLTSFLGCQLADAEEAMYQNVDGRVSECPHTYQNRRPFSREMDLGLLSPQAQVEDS", "assay": "Inhibition of FLT3 (unknown origin)"}, "[13]": {"molecular_target": "Serine/threonine-protein kinase PAK 1 (Homo sapiens, UniProt Q13153)", "assay": "Inhibition of PAK1 (unknown origin)"}, "[14]": {"molecular_target": "Serine/threonine-protein kinase PAK 2 (Homo sapiens, UniProt Q13177)", "sequence (Q13177 whole entry)": "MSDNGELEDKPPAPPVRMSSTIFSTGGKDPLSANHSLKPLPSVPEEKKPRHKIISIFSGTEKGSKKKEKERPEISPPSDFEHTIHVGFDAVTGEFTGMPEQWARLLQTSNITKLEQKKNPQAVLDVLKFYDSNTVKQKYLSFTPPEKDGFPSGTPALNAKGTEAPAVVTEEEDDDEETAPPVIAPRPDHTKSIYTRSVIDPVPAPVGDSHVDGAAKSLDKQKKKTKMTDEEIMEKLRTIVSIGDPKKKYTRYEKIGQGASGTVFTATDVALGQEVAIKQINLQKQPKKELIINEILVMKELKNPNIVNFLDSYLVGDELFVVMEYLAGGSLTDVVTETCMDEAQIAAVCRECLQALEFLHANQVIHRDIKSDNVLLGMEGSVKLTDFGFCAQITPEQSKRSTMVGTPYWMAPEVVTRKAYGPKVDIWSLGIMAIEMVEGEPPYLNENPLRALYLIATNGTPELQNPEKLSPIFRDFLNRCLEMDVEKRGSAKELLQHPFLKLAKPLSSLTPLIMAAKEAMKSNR", "assay": "Inhibition of PAK2 (unknown origin)"}, "[15]": {"molecular_target": "Serine/threonine-protein kinase TAO2 (Homo sapiens, UniProt Q9UL54)", "sequence (Q9UL54 whole entry)": "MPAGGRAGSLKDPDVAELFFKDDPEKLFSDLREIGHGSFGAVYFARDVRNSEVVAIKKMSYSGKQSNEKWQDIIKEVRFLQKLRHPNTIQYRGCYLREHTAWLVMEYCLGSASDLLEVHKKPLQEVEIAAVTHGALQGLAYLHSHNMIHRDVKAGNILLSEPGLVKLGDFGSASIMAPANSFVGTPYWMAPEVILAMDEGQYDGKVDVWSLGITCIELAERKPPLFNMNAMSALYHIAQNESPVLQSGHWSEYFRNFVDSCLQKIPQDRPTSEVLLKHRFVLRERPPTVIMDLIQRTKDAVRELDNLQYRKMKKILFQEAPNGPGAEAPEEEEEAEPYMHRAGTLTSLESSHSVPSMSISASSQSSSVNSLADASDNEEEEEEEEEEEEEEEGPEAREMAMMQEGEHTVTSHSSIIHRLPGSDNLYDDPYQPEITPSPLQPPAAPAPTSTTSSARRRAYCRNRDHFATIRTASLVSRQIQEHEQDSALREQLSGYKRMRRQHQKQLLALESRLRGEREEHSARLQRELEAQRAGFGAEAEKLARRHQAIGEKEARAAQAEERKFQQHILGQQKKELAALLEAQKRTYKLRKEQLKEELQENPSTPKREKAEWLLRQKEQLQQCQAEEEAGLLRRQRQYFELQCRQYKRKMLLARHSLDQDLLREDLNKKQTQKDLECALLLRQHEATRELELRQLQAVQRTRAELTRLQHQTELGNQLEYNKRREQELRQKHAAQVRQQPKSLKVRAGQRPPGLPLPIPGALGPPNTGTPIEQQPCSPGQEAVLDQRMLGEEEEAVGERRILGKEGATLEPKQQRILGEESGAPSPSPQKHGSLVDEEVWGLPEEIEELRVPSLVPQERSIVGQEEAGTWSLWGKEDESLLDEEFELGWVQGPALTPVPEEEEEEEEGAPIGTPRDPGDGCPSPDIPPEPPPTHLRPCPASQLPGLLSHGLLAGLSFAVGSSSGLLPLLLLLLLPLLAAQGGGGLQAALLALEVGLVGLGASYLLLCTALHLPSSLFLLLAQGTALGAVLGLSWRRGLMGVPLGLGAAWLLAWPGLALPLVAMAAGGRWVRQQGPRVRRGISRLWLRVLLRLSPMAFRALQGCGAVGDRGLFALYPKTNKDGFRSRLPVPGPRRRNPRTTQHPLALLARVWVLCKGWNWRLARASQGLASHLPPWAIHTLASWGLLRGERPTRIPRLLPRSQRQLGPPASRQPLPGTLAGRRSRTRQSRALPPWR", "assay": "Inhibition of TAOK2 (unknown origin)"}, "CT26": {"test_system": "CT26", "assay": "Antitumor activity against mouse CT26 cells implanted in Balb/c mouse model assessed as tumor growth inhibition at high dose administered as po BID measured after 15 days relative to control", "type": "functional", "details": "time 15 day"}, "MC-38 [16]": {"test_system": "MC-38", "assay": "Antitumor activity against mouse MC38 cells implanted in C57BL/6 mouse model assessed as tumor growth inhibition at 12 mg/kg, po BID measured after 12 days relative to control", "type": "functional", "details": "MC-38, 288 h, time 12 day, read-out: TGI"}, "MC-38 [17]": {"test_system": "MC-38", "assay": "Synergistic antitumor activity against mouse MC38 cells implanted in C57BL/6 mouse model assessed as CDI value at low dose, po BID measured after 12 days in presence of anti-PD-1", "type": "functional", "details": "time 12 day"}, "MC-38 [18]": {"test_system": "MC-38", "assay": "Synergistic antitumor activity against mouse MC38 cells implanted in C57BL/6 mouse model assessed as tumor growth inhibition at high dose, po BID measured after 12 days in presence of anti-PD-1 relative to control", "type": "functional", "details": "time 12 day"}, "[19]": {"assay": "Toxicity in C57BL/6 mouse implanted with mouse MC38 cells assessed as increase in survival at low dose, po BID measured after 12 days", "type": "organism-based", "details": "in vivo, 288 h, time 12 day"}, "[20]": {"assay": "Kinetic solubility of the compound in PBS buffer at pH 7.4 measured after 24 hrs by HPL-UV analysis", "type": "physicochemical", "details": "read-out: Kinetic_solubility"}, "[21]": {"assay": "Solubility in compound in FassIF at pH 6.5 incubated for 24 hrs by HPLC-UV analysis", "type": "physicochemical"}, "[22]": {"assay": "Solubility in compound in FessIF at pH 5.0 incubated for 24 hrs by HPLC-UV analysis", "type": "physicochemical"}, "[23]": {"assay": "Permeability of the compound in human Caco-2 cells measured after 90 mins by UPLC-MS/MS analysis", "type": "ADME, cell-based", "details": "read-out: permeability"}, "[24]": {"assay": "Plasma protein binding in human assessed as unbound fraction at 2 uM incubated for 4 hrs by LC-MS/MS analysis", "type": "ADME, cell-free"}, "[25]": {"assay": "Genotoxicity in Salmonella typhimurium TA1535 incubated for 48 to 72 hrs in presence of S9 fraction by AMES test", "type": "toxicity, subcellular", "details": "salmonella enterica subsp. enterica serovar typhimurium, time 48-72 hrs"}, "[26]": {"assay": "Genotoxicity in […] WP2 uvrA incubated for 48 to 72 hrs in presence of S9 fraction by AMES test", "type": "toxicity, subcellular", "details": "time 48-72 hrs"}, "[27]": {"details": "dog, in vivo, po, 2 mg/kg"}, "in vivo [28]": {"assay": "in vivo", "details": "Sprague-Dawley, rat, plasma, iv, 1 mg/kg", "description": "Clearance in Sprague-Dawley rat plasma at 1 mg/kg, iv"}, "in vivo [29]": {"assay": "in vivo", "details": "Beagle, dog, po, 2 mg/kg", "description": "Half life in Beagle dog at 2 mg/kg, po"}, "in vivo [30]": {"assay": "in vivo", "details": "cynomolgus monkey, iv, 1 mg/kg", "description": "Volume of distribution in Cynomolgus monkey at 1 mg/kg, iv"}, "in vivo [31]": {"assay": "in vivo", "details": "cynomolgus monkey, po, 2 mg/kg"}}, "data": [{"smiles": "COc1cc(Nc2ccc3c(n2)CN(C)C32CCN(C3COC3)CC2)c(C(N)=O)nc1-c1cccc2c1ncn2C", "values": [{"measurement": "IC50", "setting": "[1]", "value": "< 0.51", "unit": "nM"}, {"measurement": "IC50", "setting": "[2]", "value": 325, "unit": "nM"}, {"measurement": "EC50", "setting": "[3]", "value": 43.3, "unit": "nM"}, {"measurement": "AUC/dose", "setting": "[4]", "value": 593.6, "unit": "ng·h/mL"}, {"measurement": "bioavailability", "setting": "[5]", "value": 34.7, "unit": "%"}, {"measurement": "AUC/dose", "setting": "[6]", "value": 408.8, "unit": "ng·h/mL"}, {"measurement": "bioavailability", "setting": "[7]", "value": 62.5, "unit": "%"}, {"measurement": "IC50", "setting": "[8]", "value": 325, "unit": "nM"}, {"measurement": "IC50", "setting": "[9]", "value": 185, "unit": "nM"}, {"measurement": "IC50", "setting": "[10]", "value": 500, "unit": "nM"}, {"measurement": "IC50", "setting": "[11]", "value": "> 10000", "unit": "nM"}, {"measurement": "IC50", "setting": "[12]", "value": 317, "unit": "nM"}, {"measurement": "IC50", "setting": "[13]", "value": "> 10000", "unit": "nM"}, {"measurement": "IC50", "setting": "[14]", "value": "> 10000", "unit": "nM"}, {"measurement": "IC50", "setting": "[15]", "value": "> 10000", "unit": "nM"}, {"measurement": "TGI", "setting": "CT26", "value": 94.3, "unit": "%"}, {"measurement": "inhibition in vivo at 12 mg/kg", "setting": "MC-38 [16]", "value": 59.4, "unit": "%"}, {"measurement": "Activity", "setting": "MC-38 [17]", "value": 0.78}, {"measurement": "TGI", "setting": "MC-38 [18]", "value": 83.3, "unit": "%"}, {"measurement": "Activity", "setting": "[19]", "value": "Non-toxic"}, {"measurement": "solubility kinetic at 24 h", "setting": "[20]", "value": 2.14, "unit": "µM"}, {"measurement": "solubility at 24 h", "setting": "[21]", "value": 18.9, "unit": "µM"}, {"measurement": "solubility at 24 h", "setting": "[22]", "value": 134, "unit": "µM"}, {"measurement": "Papp at […]", "setting": "[23]", "value": 4.2, "unit": "×10⁻⁶ cm/s"}, {"measurement": "fraction unbound at 4 h, 2 µM", "setting": "[24]", "value": 0.129}, {"measurement": "Activity", "setting": "[25]", "value": "Non-toxic"}, {"measurement": "Activity", "setting": "[26]", "value": "Non-toxic"}, {"measurement": "AUC/dose", "setting": "[27]", "value": 563, "unit": "ng·h/mL"}, {"measurement": "clearance", "setting": "in vivo [28]", "value": 9.67, "unit": "mL/min/kg"}, {"measurement": "half-life", "setting": "in vivo [29]", "value": 7.65, "unit": "h"}, {"measurement": "Vd", "setting": "in vivo [30]", "value": 5.07, "unit": "L/kg"}, {"measurement": "bioavailability", "setting": "in vivo [31]", "value": 42, "unit": "%"}]}]}
